Data set [1] relates to tumor. Particulars: earlier filings; cited from earlier work.
The subject of data set [2] is immune response. Particulars: earlier publications/filings; cited from earlier work.
For data set [3], the target named is T1, carboxypeptidase A (Bos taurus, UniProt P00730).
T1 construct: purchased Sigma Co. Type 1; host or cells: bovine pancreas
T1 sequence (P00730 111-417 limits assumed): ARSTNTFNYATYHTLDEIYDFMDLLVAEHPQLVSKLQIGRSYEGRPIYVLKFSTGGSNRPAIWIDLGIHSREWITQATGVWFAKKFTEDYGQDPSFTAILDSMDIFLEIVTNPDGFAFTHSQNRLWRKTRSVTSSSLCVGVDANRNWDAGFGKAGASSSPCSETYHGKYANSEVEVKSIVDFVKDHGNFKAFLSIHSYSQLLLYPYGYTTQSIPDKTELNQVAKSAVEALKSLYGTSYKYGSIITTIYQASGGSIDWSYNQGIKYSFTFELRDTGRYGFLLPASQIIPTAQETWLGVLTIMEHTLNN
As to the kind of experiment: inhibitory activity of the compounds to carboxypeptidase A. Format: biochemical, bovine. Particulars: hippuryl-L-phenylalanine substrate, pH 7.5, 37° C., 30 minutes; read-out: IC50 (50% Inhibition Concentration) (converted). As to the method:
(1) Method of testing the inhibitory activity of the compounds to carboxypeptidase A: The carboxypeptidase A-inhibitory activity was determined according to a modification of the method of Hayakari et al. (M. Hayakari et al., "Analytical Biochemistry" 84, 361-369, 1978). Thus, a mixture of 0.05 ml of a solution of 10 mM hippuryl-L-phenylalanine (as substrate), 0.25 ml of 0.05 M Tris-hydrochloride buffer (pH 7.5) containing 0.9 M NaCl and 0.15 ml of a solution containing a test compound as produced in Example 1, 2, 3 or 4 shown hereinafter was heated at 37° C. for 3 minutes. To said mixture was then added 0.05 ml of a carboxypeptidase A (Type 1, as extracted from bovine pancreas, a product of Sigma Co.), and the enzymatic reaction was effected at 37° C. for 30 minutes. The reaction solution was admixed with 0.03 ml of aqueous 1N sodium hydroxide to stop the reaction. After allowing to stand at ambient temperature for 15 minutes, the reaction solution was admixed with 2 ml of 0.06 M phosphate buffer (pH 7.2) and with 2 ml of a solution of 1% cyanuric chloride in ethylene glycol monomethylester. After the reaction solution was allowed to stand at ambient temperature for 5 minutes, absorbance (a) at 382 nm of the reaction solution was measured. For the blank test, the above procedure was repeated using said buffer solutions without the test compound, and the absorbance (b) was measured in the blank test. The percentage for inhibition to carboxypeptidase A was calculated according to the equation: [formula] On the basis of the values of percentages of inhibition measured by the above procedure, 50% Inhibition Concentration (IC50) was evaluated.

For data set [4], the system named is ICR-strain mice. Kind of data set: Toxicity after intraperitoneal administration. The format is in vivo. Particulars: 100 mg/Kg intraperitoneally, ICR-strain mice (male, 5 weeks-aged).
In data set [5] the test system is D.T.H. response with sheep red blood cells. As to the kind of experiment: effect on cell-mediated or cellular immunity: Delayed Type Hypersensitivity (D.T.H.) with sheep red blood cells. The format is in vivo, CDF1-mouse. Conditions: oral, 24 hours after challenge, * P < 0.05. As to the method:
(2) The effect on cell-mediated or cellular immunity:
The effect of the new arphamenine-related compounds on cell-mediated or cellular immunity was evaluated by measuring Delayed Type Hypersensitivity (D.T.H.) using mice which received sheep red blood cell inoculated as antigen into the footpad of mice for immunization (see P. H. Lagrange, G. B. Mackaness and T. E. Miller: "J. Exp. Med.", 139, 1529-1539 (1974)).
A suspension of 10^8 sheep red blood cells (SRBC) in 0.05 ml of physiological saline was subcutaneously injected into one footpad of each CDF1 -mouse (female, 8 weeks-aged, 5 mice in each group) for immunization. Simultaneously, the mouse under test was given orally the test compound at a dosage of 5 mg/Kg, 0.5 mg/Kg or 0.05 mg/Kg as a solution of the test compound which was prepared by dissolving the test compound in physiological saline and then filtering the resulting solution by a millipore filter. On 4 days after the administration of the test compound, 10^8 sheep red blood cells were subcutaneously injected into another footpad of each test mouse for secondary challenge of the D.T.H. response. 24 Hours after the challenge, the thickness of the footpads was measured with calipers. Concurrently, the thickness of footpad of control mice which had received the injection of SRBC and physiological saline without the administration of the test compound was also measured in each mouse.
The effect of the test compound on the DTH response was evaluated by a percentage of increase in footpad thickness as calculated according to the following equation: [formula]

The subject of data set [6] is carboxypeptidase. Particulars: J. Antibiot., 37, 682 (1984); cited from earlier work.

As to `N=C(N)NCCCC(N)C(=O)CC(Cc1ccccc1)C(=O)O` (centres unmarked) [arphamenine A], in data set [1], the antitumor activity result was “antitumor activity”. Further, in data set [2], the immunopotentiating activity entry is recorded as “immunopotentiating activity”.
In the case of `Cc1cc(C)nc(NCCCC(NC(=O)OCc2ccccc2)C(=O)CC(Cc2ccc(O)cc2)C(=O)O)n1` (centres unmarked) [Example 4 (b), 5-benzyloxycarbonylamino-8-[(4,6-dimethylpyrimidin-2-yl)amino]-2-(4'-hydroxyphenylmethyl)-4-oxo-octanoic acid], the IC50 in data set [3] is 655 nM. In addition, in data set [4], the death entry is listed as “no death”. In addition, the “Percentage of increase in footpad thickness” value (from here on “Percentage of increase”) in data set [5] (0.05 mg/Kg) was 110 Percentage; in data set [5] (0.5 mg/Kg), 123 Percentage; in data set [5] (5 mg/Kg) it was 145 Percentage.
On to `Cc1cc(C)nc(NCCCC(NC(=O)c2ccccc2)C(=O)CC(Cc2ccc(O)cc2)C(=O)O)n1` (centres unmarked) [Example 2 (b), 5-benzoylamino-8-[(4,6-dimethylpyrimidin-2-yl)amino]-2-(4'-hydroxyphenylmethyl)-4-oxo-octanoic acid], for which the IC50 in data set [3] is 17.4 nM. Also, the death result in data set [4] is reported as “no death”. Also, the figures for the “Percentage of increase” value in data set [5] (0.05 mg/Kg), in data set [5] (0.5 mg/Kg) and in data set [5] (5 mg/Kg) were 113 Percentage, 130 Percentage and 144 Percentage, respectively.
With benzylmalic acid, the immunopotentiating activity result in data set [2] is on record as “shows an immunopotentiating activity”. In addition, the carboxypeptidase-inhibitory activity entry in data set [6] was “having a carboxypeptidase-inhibitory activity”.
For the molecule `N=C(N)NCCCC(N)C(=O)CC(Cc1ccc(O)cc1)C(=O)O` (centres unmarked) [arphamenine B], the antitumor activity result in data set [1] was “antitumor activity”. The immunopotentiating activity entry in data set [2] is “immunopotentiating activity”.
Consider `Cc1cc(C)nc(NCCCC(NC(=O)OCc2ccccc2)C(=O)CC(Cc2ccccc2)C(=O)O)n1` (centres unmarked) [Example 3 (b), 5-benzyloxycarbonylamino-8-[(4,6-dimethylpyrimidin-2-yl)amino]-4-oxo-2-phenylmethyloctanoic acid], for which the IC50 in data set [3] is 123 nM. For the same molecule, the death result in data set [4] is on record as “no death”. In addition, the figures for the “Percentage of increase” value in data set [5] (0.05 mg/Kg), in data set [5] (0.5 mg/Kg) and in data set [5] (5 mg/Kg) were 110 Percentage, 120 Percentage and 136 Percentage, respectively.
On the same counts, the results for `Cc1cc(C)nc(NCCCC(NC(=O)c2ccccc2)C(=O)CC(Cc2ccccc2)C(=O)O)n1` (centres unmarked) [Example 1 (b), 5-benzoylamino-8-[(4,6-dimethylpyrimidin-2-yl)amino]-4-oxo-2-phenylmethyloctanoic acid] are 40.9 nM, “no death”, 107 Percentage, 121 Percentage and 128 Percentage.

The values above are taken from patent US4661495A, “Arphamenine-related compounds useful for potentiating the immune response in a living animal” (Zaidan Hojin Biseibutsu Kagaku Kenkyu Kai, priority 1984, dated 1987).
